Laboratory results reported in patent US11020482B2, “Methods and compositions related to inhibition of viral entry” (UNIVERSITY OF UTAH RESEARCH FOUNDATION, priority 2011, dated 2021).
Like-named read-outs stand apart in the source and are kept apart here.

Tests used:
[1] = test system: HIV HXB2 strain pseudovirions; test: Pseudovirion viral infectivity (entry) assay, HXB2; assay type: cell-based, HIV-1
Protocol: (§1) This study included the use of the HIV HXB2 strain and the HIV JRFL strain. Viral infectivity was measured essentially as previously described (Hamburger 2005) with several modifications. 8 μg/mL DEAE-Dextran was used as a fusion enhancer in all assays. Media was changed 22-26 h following infection. […] Fits were weighted by the absolute s.e.m. from quadruplicate points with the minimum allowable error set to 1%.
(§2) Pseudovirion infectivity assays were carried out using HIV HXB2 strain and HIV JRFL strain luciferase reporter pseudovirions (NL4-3 strain) and HOS-CD4-CXCR4 (for HXB2) or HOS-CD4-CCR5 (for JRFL) target cells (Welch, 2007 and 2010). Inhibitors curves were generated using six concentration points measured in quadruplicate, and luciferase counts were normalized to an uninhibited control. Inhibition curves were fit using a standard IC50 equation (1-c/(IC50+c)) weighting each concentration point by its standard error in KaleidaGraph™ (Synergy Software). Reported IC50 values are the average of at least 2 independent assays.

[2] = test system: HIV JRFL strain pseudovirions; test: Pseudovirion viral infectivity (entry) assay, JRFL; assay type: cell-based, HIV-1
Protocol: as §1, §2

E560K/V570I HXB2 = test: Pseudovirion entry assay, resistant strain E560K/V570I; assay type: cell-based, HIV-1; conditions: Table 4; resistance mutation discovered against PIE7-dimer
Protocol: as §2

Q577R HXB2 = test: Pseudovirion entry assay, resistant strain Q577R; assay type: cell-based, HIV-1; conditions: Table 4; resistance mutation discovered against PIE12-trimer
Protocol: as §2

[3] = test system: HIV HXB2 strain pseudovirions; conditions: Table 5; value marked * (from 20); cited from earlier work
[4] = test system: HIV JRFL strain pseudovirions; conditions: Table 5; value marked * (from 20); cited from earlier work
HIV-1 isolate IIIB = test: Replication competent virus, PBMC target cells; assay type: cell-based; conditions: envelope subtype B
HIV-1 isolate Ba-L = test: Replication competent virus, PBMC target cells; assay type: cell-based; conditions: envelope subtype B
HIV-1 isolate JR-CSF = test: Replication competent virus, PBMC target cells; assay type: cell-based; conditions: envelope subtype B
HIV-1 isolate JR-FL = test: Replication competent virus, PBMC target cells; assay type: cell-based; conditions: envelope subtype B
HIV-1 isolate 92UG029 = test: Replication competent virus, PBMC target cells; assay type: cell-based; conditions: isolate 92UG029, envelope subtype A
HIV-1 isolate 92UG037 = test: Replication competent virus, PBMC target cells; assay type: cell-based; conditions: isolate 92UG037, envelope subtype A
HIV-1 isolate 93IN101 = test: Replication competent virus, PBMC target cells; assay type: cell-based; conditions: isolate 93IN101, envelope subtype C
HIV-1 isolate 92BR025 = test: Replication competent virus, PBMC target cells; assay type: cell-based; conditions: isolate 92BR025, envelope subtype C
HIV-1 isolate 92UG001 = test: Replication competent virus, PBMC target cells; assay type: cell-based; conditions: isolate 92UG001, envelope subtype D
HIV-1 isolate 92UG046 = test: Replication competent virus, PBMC target cells; assay type: cell-based; conditions: isolate 92UG046, envelope subtype D
HIV-1 isolate CMU02 = test: Replication competent virus, PBMC target cells; assay type: cell-based; conditions: isolate CMU02, envelope subtype AE
HIV-1 isolate 93TH073 = test: Replication competent virus, PBMC target cells; assay type: cell-based; conditions: isolate 93TH073, envelope subtype E
HIV-1 isolate CMU06 = test: Replication competent virus, PBMC target cells; assay type: cell-based; conditions: isolate CMU06, envelope subtype E
HIV-1 isolate 93BR019 = test: Replication competent virus, PBMC target cells; assay type: cell-based; conditions: isolate 93BR019, envelope subtype BF
HIV-1 isolate 93BR020 = test: Replication competent virus, PBMC target cells; assay type: cell-based; conditions: isolate 93BR020, envelope subtype F
HIV-1 isolate 93BR029 = test: Replication competent virus, PBMC target cells; assay type: cell-based; conditions: isolate 93BR029, envelope subtype F
HIV-1 isolate G3 = test: Replication competent virus, PBMC target cells; assay type: cell-based; conditions: isolate G3, envelope subtype G
HIV-1 isolate RU570 = test: Replication competent virus, PBMC target cells; assay type: cell-based; conditions: isolate RU570, envelope subtype G
[5] = test system: replication competent HIV strains that cover envelope subtypes A, B, C, D, E, F, and G; test: Inhibitory breadth against replication competent virus panel; assay type: cell-based, HIV-1
HIV = test: Infectivity assay; assay type: cell-based
[6] = Table 4, cholesterol potency-enhancing cargo

With GACDYPEWQWLCAAGKK [PIE7-GKK] as the substance, how does the IC50 ([1]; Table 2, pseudovirion entry) read?
Its IC50 is 380 nM.

What about the IC50 ([2]; Table 2, pseudovirion entry) of the same substance?
Its IC50 is 19100 nM.

With HPCDYPEWQWLCKLGK [PIE13] as the substance, how does the IC50 ([1]; Table 2, pseudovirion entry) read?
Its IC50 is 41 nM.

And the IC50 ([2]; Table 2, pseudovirion entry)?
Its IC50 is 1470 nM.

What does the source list for HPCDYPEWQWLCELGK [PIE12]?
IC50 ([1]; Table 2, pseudovirion entry): 37 nM; IC50 [1, 6]: 37 nM; IC50 ([2]; Table 2, pseudovirion entry): 578 nM; IC50 [2, 6]: 580 nM; IC50 (E560K/V570I HXB2): 240 nM; IC50 (Q577R HXB2): 10200 nM; IC50 [3]: 37 ± 2.3 nM; IC50 [4]: 580 ± 21.4 nM

With KGACDYPEWQWLCAAGK [K-PIE7-GK] as the substance, how does the IC50 ([2]; Table 2, pseudovirion entry) read?
Its IC50 is 14800 nM.

Which IC50 ([1]; Table 2, pseudovirion entry) does the source give for KGACDYPEWQWLCAA [PIE7] here?
Its IC50 is 620 nM.

What about the IC50 ([2]; Table 2, pseudovirion entry) of the same substance?
The IC50 was 24000 nM.

With KGACDYPEWRWLCAA [PIE2] as the substance, how does the IC50 ([2]; Table 2, pseudovirion entry) read?
The IC50 was 66000 nM.

With KGACDYKEWQWLCAA [PIE8] as the substance, how does the IC50 ([2]; Table 2, pseudovirion entry) read?
The IC50 was about 110000 nM.

Which IC50 ([2]; Table 2, pseudovirion entry) does the source give for KKGACESPEWRWLCAA [2K-PIE1] here?
Its IC50 is over 100000 nM.

For enfuvirtide [FUZEON ®], which IC50 ([1]; Table 2, pseudovirion entry) is on record?
Its IC50 is 3.7 nM.

And the IC50 ([2]; Table 2, pseudovirion entry)?
The IC50 was 5 nM.

And the IC50 (HIV-1 isolate IIIB)?
The IC50 was 28.3 nM.

And the IC50 (HIV-1 isolate Ba-L)?
Its IC50 is 19.7 nM.

What about the IC50 (HIV-1 isolate JR-CSF) of the same substance?
The IC50 was 7.03 nM.

And the IC50 (HIV-1 isolate JR-FL)?
Its IC50 is 1.65 nM.

What about the IC50 (HIV-1 isolate 92UG029) of the same substance?
Its IC50 is 191 nM.

And the IC50 (HIV-1 isolate 92UG037)?
The IC50 was 41.5 nM.

And the IC50 (HIV-1 isolate 93IN101)?
Its IC50 is 22.4 nM.

And the IC50 (HIV-1 isolate 92BR025)?
The IC50 was 305 nM.

What about the IC50 (HIV-1 isolate 92UG001) of the same substance?
Its IC50 is 182 nM.

What about the IC50 (HIV-1 isolate 92UG046) of the same substance?
Its IC50 is 130 nM.

And the IC50 (HIV-1 isolate CMU02)?
Its IC50 is 43.8 nM.

And the IC50 (HIV-1 isolate 93TH073)?
The IC50 was 198 nM.

And the IC50 (HIV-1 isolate CMU06)?
Its IC50 is 5.65 nM.

What about the IC50 (HIV-1 isolate 93BR019) of the same substance?
The IC50 was over 1000 nM.

And the IC50 (HIV-1 isolate 93BR020)?
Its IC50 is 58.5 nM.

And the IC50 (HIV-1 isolate 93BR029)?
Its IC50 is 18.6 nM.

What about the IC50 (HIV-1 isolate G3) of the same substance?
The IC50 was 23.3 nM.

And the IC50 (HIV-1 isolate RU570)?
Its IC50 is 37 nM.

What about the “fold less inhibition than PIE12-trimer” value ([5]; HIV subtype A viruses) of the same substance?
Its value is over 100 fold.

What about the “fold less inhibition than PIE12-trimer” value ([5]; subtype C viruses) of the same substance?
Its value is about 60 fold.

Which IC50 ([1]; Table 2, pseudovirion entry) does the source give for GACDYPEWQWLCAAGK [PIE7-GK] here?
Its IC50 is 390 nM.

And the IC50 ([2]; Table 2, pseudovirion entry)?
Its IC50 is 15800 nM.

Which results are given for KKGACELLGWEWAWLCAA [D10-p5]?
IC50 ([2]; Table 2, pseudovirion entry): > 25000 nM; inhibit infection of cells (HIV): inhibit infection of cells

For HACDYPEWQWLCELGK [PIE15], which IC50 ([1]; Table 2, pseudovirion entry) is on record?
Its IC50 is 67 nM.

What about the IC50 ([2]; Table 2, pseudovirion entry) of the same substance?
Its IC50 is 1450 nM.

For HPCDYPEWQWLCRLGK [PIE14], which IC50 ([1]; Table 2, pseudovirion entry) is on record?
Its IC50 is 33 nM.

What about the IC50 ([2]; Table 2, pseudovirion entry) of the same substance?
Its IC50 is 1050 nM.
